Measurements reported in ChEMBL document CHEMBL1909046, “DrugMatrix in vitro pharmacology data”.

What was measured:
[1] = DRUGMATRIX: Glutamate, AMPA radioligand binding (ligand: [3H] AMPA); format: cell membranes, Rattus norvegicus, Wistar, Cerebral cortex, Membrane; settings: Not Active = under 50% inhibition at 10 µM
[2] = DRUGMATRIX: Calcium Channel Type L, Benzothiazepine radioligand binding (ligand: [3H] Diltiazem); format: cell membranes, Rattus norvegicus, Wistar, Brain, Membrane; settings: Not Active = under 50% inhibition at 10 µM
[3] = DRUGMATRIX: Purinergic P2X radioligand binding (ligand: [3H] alpha, beta-Methylene-ATP); format: cell membranes, Oryctolagus cuniculus, New Zealand albino, Urinary bladder, Membrane; settings: Not Active = under 50% inhibition at 10 µM
D(1A) dopamine receptor = D(1A) dopamine receptor (Homo sapiens, UniProt P21728); experiment: DRUGMATRIX: Dopamine D1 radioligand binding (ligand: [3H] SCH-23390); format: cell membranes, CHO, Membrane; settings: cho; Not Active = under 50% inhibition at 10 µM
Mu-type opioid receptor = Mu-type opioid receptor (Homo sapiens, UniProt P35372); experiment: DRUGMATRIX: Opiate mu (OP3, MOP) radioligand binding (ligand: [3H] Diprenorphine); format: cell membranes, CHO-K1, Membrane; settings: cho-k1; Not Active = under 50% inhibition at 10 µM
[4] = DRUGMATRIX: ATPase, Na+/K+ enzyme inhibition (substrate: ATP); format: tissue-based, Sus scrofa, Heart; settings: Not Active = under 50% inhibition at 10 µM
[5] = DRUGMATRIX: Glutamate, NMDA, Agonism radioligand binding (ligand: [3H] CGP-39653); format: cell membranes, Rattus norvegicus, Wistar, Cerebral cortex, Membrane; settings: Not Active = under 50% inhibition at 10 µM
[6] = target: Kappa-type opioid receptor (Homo sapiens, UniProt P41145); experiment: DRUGMATRIX: Opiate kappa (OP2, KOP) radioligand binding (ligand: [3H] Diprenorphine); format: cell membranes, HEK293, Membrane; settings: hek293; Not Active = under 50% inhibition at 10 µM
Chain of Kappa-type opioid receptor (P41145 whole entry): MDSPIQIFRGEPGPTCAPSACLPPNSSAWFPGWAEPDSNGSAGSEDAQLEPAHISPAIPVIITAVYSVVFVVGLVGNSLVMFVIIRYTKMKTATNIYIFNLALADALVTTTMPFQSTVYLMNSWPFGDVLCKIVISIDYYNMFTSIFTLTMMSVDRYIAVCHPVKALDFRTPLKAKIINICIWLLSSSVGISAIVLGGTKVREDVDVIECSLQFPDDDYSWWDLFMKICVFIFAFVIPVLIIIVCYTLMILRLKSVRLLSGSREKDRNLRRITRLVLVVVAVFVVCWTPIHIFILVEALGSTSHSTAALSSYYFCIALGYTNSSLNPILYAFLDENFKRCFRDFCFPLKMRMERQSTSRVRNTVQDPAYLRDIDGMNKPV

Chain of Mu-type opioid receptor (P35372 whole entry): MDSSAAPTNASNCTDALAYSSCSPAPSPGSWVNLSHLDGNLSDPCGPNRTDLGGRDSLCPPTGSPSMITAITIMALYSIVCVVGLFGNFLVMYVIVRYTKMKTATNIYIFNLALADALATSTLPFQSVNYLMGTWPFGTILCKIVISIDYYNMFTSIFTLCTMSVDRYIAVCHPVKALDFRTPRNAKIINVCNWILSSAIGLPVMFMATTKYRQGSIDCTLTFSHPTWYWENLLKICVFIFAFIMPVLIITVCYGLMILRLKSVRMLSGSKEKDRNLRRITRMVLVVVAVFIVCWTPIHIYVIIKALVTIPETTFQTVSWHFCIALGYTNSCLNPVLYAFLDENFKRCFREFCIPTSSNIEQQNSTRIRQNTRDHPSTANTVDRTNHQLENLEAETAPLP
Chain of D(1A) dopamine receptor (P21728 whole entry): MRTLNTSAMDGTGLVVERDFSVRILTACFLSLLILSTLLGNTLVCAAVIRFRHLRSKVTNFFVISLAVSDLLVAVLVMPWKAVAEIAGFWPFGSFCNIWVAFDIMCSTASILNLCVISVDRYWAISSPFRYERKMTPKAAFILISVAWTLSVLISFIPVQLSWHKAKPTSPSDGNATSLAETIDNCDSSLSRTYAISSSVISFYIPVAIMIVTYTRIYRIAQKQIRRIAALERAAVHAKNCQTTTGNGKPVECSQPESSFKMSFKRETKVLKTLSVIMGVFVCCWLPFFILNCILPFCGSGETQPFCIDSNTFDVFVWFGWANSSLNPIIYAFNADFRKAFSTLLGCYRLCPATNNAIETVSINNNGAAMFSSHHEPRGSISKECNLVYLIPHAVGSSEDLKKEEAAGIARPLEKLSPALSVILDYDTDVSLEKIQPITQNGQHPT

CC(=N)S [THIOACETAMIDE]
Not Active: IC50 [1] | Ki [1] | IC50 [2] | Ki [2] | IC50 [3] | Ki [3] | IC50 (D(1A) dopamine receptor) | IC50 (Mu-type opioid receptor) | IC50 [4] | Ki [4] | IC50 [5] | Ki [5] | IC50 [6]

Cc1ccc(C(=O)c2ccc(CC(=O)O)n2C)cc1 [TOLMETIN]
Not Active: IC50 [1] | Ki [1] | IC50 [2] | Ki [2] | IC50 [3] | Ki [3] | IC50 (D(1A) dopamine receptor) | IC50 (Mu-type opioid receptor) | IC50 [4] | Ki [4] | IC50 [5] | Ki [5] | IC50 [6]

CC(=O)OCC(COC(C)=O)OC(C)=O [TRIACETIN]
Not Active: IC50 [1] | Ki [1] | IC50 [2] | Ki [2] | IC50 [3] | Ki [3] | IC50 (D(1A) dopamine receptor) | IC50 (Mu-type opioid receptor) | IC50 [4] | Ki [4] | IC50 [5] | Ki [5] | IC50 [6]

CN1CCN(CCCN2c3ccccc3Sc3ccc(C(F)(F)F)cc32)CC1 [TRIFLUOPERAZINE]
Not Active: IC50 [1] | Ki [1] | IC50 [2] | Ki [2] | IC50 [3] | Ki [3] | IC50 (D(1A) dopamine receptor) | IC50 (Mu-type opioid receptor) | IC50 [4] | Ki [4] | IC50 [5] | Ki [5] | IC50 [6]
